{"source": "paper PMC3433420", "about": "(PLoS ONE, 2012)", "key": {"SH2 and PTB domains": {"molecular_target": "SH2 and PTB domains", "conditions": "original PM interactions, ref Jones et al. 2006 / Kaushansky et al. Chem and Biol 2008, cited from earlier work", "source_text": "Supplement pone.0044471.s022.xlsx, sheet \"Most recent PM interactions\" | column: Kd || Supplement pone.0044471.s022.xlsx, sheet \"All original PM interactions\" | column: Kd"}, "GRB7 SH2 domain [1]": {"molecular_target": "T1, GRB7 SH2 domain (Homo sapiens, UniProt Q14451)", "T1 sequence (Q14451 431-527 limits assumed)": "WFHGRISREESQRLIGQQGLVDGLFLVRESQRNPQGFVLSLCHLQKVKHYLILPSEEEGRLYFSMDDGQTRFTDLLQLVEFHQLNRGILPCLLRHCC", "assay": "FP saturation binding assay", "conditions": "peptides queried on both FP and PM platforms"}, "GRB7 SH2 domain [2]": {"molecular_target": "T1, GRB7 SH2 domain", "parameters": "6X His; thioredoxin; made in house; host or cells: E. coli BL21(DE3)pLysS", "conditions": "previous protein microarray data, Figure S5; cited from earlier work"}}, "note": "Like-named read-outs stand apart in the source and are kept apart here.", "data": [{"substance": "FDNLpYYWDQDPPEd [ErbB2 pY1221, N-terminally rhodamine-labeled 13-mer phosphopeptide]", "values": [{"measurement": "Kd", "setting": "SH2 and PTB domains; Protein ABL2", "result": 500, "unit": "nM"}, {"measurement": "Kd", "setting": "SH2 and PTB domains; Protein BLK", "result": 1200, "unit": "nM"}, {"measurement": "Kd", "setting": "SH2 and PTB domains; Protein BLNK", "result": 1560, "unit": "nM"}, {"measurement": "Kd", "setting": "SH2 and PTB domains; Protein BMX", "result": 2000, "unit": "nM"}, {"measurement": "Kd", "setting": "SH2 and PTB domains; Protein FGR", "result": 2000, "unit": "nM"}, {"measurement": "Kd", "setting": "SH2 and PTB domains; Protein GRB10", "result": 120, "unit": "nM"}, {"measurement": "Kd", "setting": "SH2 and PTB domains; Protein GRB14", "result": 1400, "unit": "nM"}, {"measurement": "Kd", "setting": "SH2 and PTB domains; Protein ITK", "result": 1520, "unit": "nM"}, {"measurement": "Kd", "setting": "SH2 and PTB domains; Protein LYN", "result": 930, "unit": "nM"}, {"measurement": "Kd", "setting": "SH2 and PTB domains; Protein PIK3R1-C", "result": 2000, "unit": "nM"}, {"measurement": "Kd", "setting": "SH2 and PTB domains; Protein PIK3R1-NC", "result": 1160, "unit": "nM"}, {"measurement": "Kd", "setting": "SH2 and PTB domains; Protein PIK3R2-N", "result": 950, "unit": "nM"}, {"measurement": "Kd", "setting": "SH2 and PTB domains; Protein PIK3R2-NC", "result": 2000, "unit": "nM"}, {"measurement": "Kd", "setting": "SH2 and PTB domains; Protein PIK3R3-C", "result": 1910, "unit": "nM"}, {"measurement": "Kd", "setting": "SH2 and PTB domains; Protein PIK3R3-N", "result": 2000, "unit": "nM"}, {"measurement": "Kd", "setting": "SH2 and PTB domains; Protein PIK3R3-NC", "result": 2000, "unit": "nM"}, {"measurement": "Kd", "setting": "SH2 and PTB domains; Protein PLCG1-C", "result": 2000, "unit": "nM"}, {"measurement": "Kd", "setting": "SH2 and PTB domains; Protein PLCG1-N", "result": 1930, "unit": "nM"}, {"measurement": "Kd", "setting": "SH2 and PTB domains; Protein PLCG1-NC", "result": 1960, "unit": "nM"}, {"measurement": "Kd", "setting": "SH2 and PTB domains; Protein PLCG2-N", "result": 2000, "unit": "nM"}, {"measurement": "Kd", "setting": "SH2 and PTB domains; Protein PLCG2-NC", "result": 2000, "unit": "nM"}, {"measurement": "Kd", "setting": "SH2 and PTB domains; Protein PTPN11-N", "result": 2000, "unit": "nM"}, {"measurement": "Kd", "setting": "SH2 and PTB domains; Protein RASA1-N", "result": 370, "unit": "nM"}, {"measurement": "Kd", "setting": "SH2 and PTB domains; Protein RASA1-NC", "result": 900, "unit": "nM"}, {"measurement": "Kd", "setting": "SH2 and PTB domains; Protein SH2D3A", "result": 1280, "unit": "nM"}, {"measurement": "Kd", "setting": "SH2 and PTB domains; Protein SH2D3C", "result": 160, "unit": "nM"}, {"measurement": "Kd", "setting": "SH2 and PTB domains; Protein SH3BP2", "result": 2000, "unit": "nM"}, {"measurement": "Kd", "setting": "SH2 and PTB domains; Protein SHB", "result": 210, "unit": "nM"}, {"measurement": "Kd", "setting": "SH2 and PTB domains; Protein SHC1-PTB", "result": 170, "unit": "nM"}, {"measurement": "Kd", "setting": "SH2 and PTB domains; Protein SHC2-PTB", "result": 430, "unit": "nM"}, {"measurement": "Kd", "setting": "SH2 and PTB domains; Protein SHD", "result": 2000, "unit": "nM"}, {"measurement": "Kd", "setting": "SH2 and PTB domains; Protein SHF", "result": 340, "unit": "nM"}, {"measurement": "Kd", "setting": "SH2 and PTB domains; Protein SLA2", "result": 1440, "unit": "nM"}, {"measurement": "Kd", "setting": "SH2 and PTB domains; Protein SLA", "result": 1070, "unit": "nM"}, {"measurement": "Kd", "setting": "SH2 and PTB domains; Protein SOCS1", "result": 1230, "unit": "nM"}, {"measurement": "Kd", "setting": "SH2 and PTB domains; Protein SRC", "result": 35, "unit": "nM"}, {"measurement": "Kd", "setting": "SH2 and PTB domains; Protein SUPT6H", "result": 1570, "unit": "nM"}, {"measurement": "Kd", "setting": "SH2 and PTB domains; Protein SYK-C", "result": 2000, "unit": "nM"}, {"measurement": "Kd", "setting": "SH2 and PTB domains; Protein SYK-N", "result": 260, "unit": "nM"}, {"measurement": "Kd", "setting": "SH2 and PTB domains; Protein SYK-NC", "result": 410, "unit": "nM"}, {"measurement": "Kd", "setting": "SH2 and PTB domains; Protein TEC", "result": 770, "unit": "nM"}, {"measurement": "Kd", "setting": "SH2 and PTB domains; Protein TXK", "result": 1230, "unit": "nM"}, {"measurement": "Kd", "setting": "SH2 and PTB domains; Protein VAV2", "result": 1750, "unit": "nM"}, {"measurement": "Kd", "setting": "SH2 and PTB domains; Protein VAV3", "result": 1650, "unit": "nM"}, {"measurement": "Kd", "setting": "SH2 and PTB domains; Protein YES1", "result": 45, "unit": "nM"}, {"measurement": "Kd", "setting": "SH2 and PTB domains; Protein ZAP70-NC", "result": 1440, "unit": "nM"}, {"measurement": "interaction with GRB7 on the FP platform", "setting": "GRB7 SH2 domain [1]", "result": "only displayed interactions with GRB7 from the PM platform"}, {"measurement": "interaction with GRB7 on the PM platform", "setting": "GRB7 SH2 domain [2]", "result": "only displayed interactions with GRB7 from the PM platform"}]}]}
